Results on three molecules are retold here after ChEMBL document CHEMBL1124941, “Assessment of the in vivo and in vitro opioid activity of bridged hexahydroaporphine and isoquinoline molecules” (J Med Chem, 1990).

For assay [1], the species on record is Mus musculus. Description: Effective dose required for antinociceptive activity in mouse. In kind it is functional.
The target of assay [2] is T1, Opioid receptor (Rattus norvegicus, UniProt P33533+P34975+P33535). In kind it is tissue-based, Brain.
Description: Concentration that produces 50% inhibition of stereospecific [3H]naloxone binding to opioid receptors in rat brain in presence of sodium.
Assay [3] has as its target T1, Opioid receptor. It is filed as tissue-based, Brain. This is another data set of the same source.
Description: Concentration that produces 50% inhibition of stereospecific [3H]naloxone binding to opioid receptors in rat brain in absence of sodium.

The structures appear in SMILES notation.

Turning to `CN1CC[C@]23c4c5ccc(O)c4O[C@H]2[C@@H](O)C=C[C@H]3[C@H]1C5.CN1CC[C@]23c4c5ccc(O)c4O[C@H]2[C@@H](O)C=C[C@H]3[C@H]1C5.O=S(=O)(O)O`, the ED50 in assay [1] is 0.0794 µg.

The molecule `COc1ccc2c(c1)C1CCC3CCC14C3CCN(C)C4C2.Cl` (stereo not given) gave an ED50 in assay [1] of 5.42 µg. As usually defined, the IC50 is the point on the concentration scale where inhibition reaches its midpoint. A lower IC50 goes with higher potency. Regarding `CN1CCC2C3CCC4c5cc(O)ccc5CC1C42CC3.Cl` (stereo not given), the IC50 in assay [2] stood at 5.59 µM; in assay [3], 472 nM. The ED50 in assay [1] stood at 4.07 µg.
